Experimental data as given in patent publication US20150320696A1, “COMBINATION THERAPY FOR CANCER” (priority 2012, published 2015).

Columns and labels:
[1] = test system: DLD-1 colorectal cancer cell line xenograft; assay: Xenograft model of nude mice bearing DLD-1 colorectal cancer cell line; type: in vivo, athymic nude mice
Procedure: Male athymic nude mice, 6-8 weeks old, (Harlan Laboratories) were housed in sterile cages and handled with aseptic precautions. The mice were fed ad libitum. The therapeutic anti-cancer activity of terpinen-4-ol alone or in combination with additional anti-cancer agents was examined as follows: exponentially growing DLD1 cancer cells were harvested and resuspended at a final concentration of 5×10^6 cells per 0.2 ml PBS per injection. The cells were injected subcutaneously at two sites on the backs of the mice. When tumors were palpable, mice were randomly divided into the treatment groups as described hereinbelow.
At the 9th day after cell injection mice were randomly divided into treatment and control groups and the treatment was started by intra-tumor injection. The control group (5 mice) received 50 μl of a PBS solution with 1% DMSO; the treatment group (5 mice) received 50 μl of PBS solution with 1% DMSO containing 0.1% (v/v) terpinen-4-ol (1A).
Mice were treated every second day. The mice were weighed and tumor volume was measured every three days (with a caliper) starting from the onset of treatment with terpinen-4-ol/control. Tumor volume was calculated as 4/3π·a·b^2. At the end of the experiment, the mice were sacrificed by cervical dislocation after anesthesia and the tumors were excised and measured for volume and weight. Half of each tumor was preserved in −80° C. and the other half was preserved in 4% formaldehyde.
At the 11th day after cell implantation, mice were randomly divided into groups and the treatment started. The chemotherapeutic agent (cetuximub, referred to hereinafter by its trade name Erbitox®) was administered via intraperitoneal (i.p) injection 24 hours before administration of terpinen-4-ol. The terpinen-4-ol was administered directly into the tumor (intra-tumor injection).
Mice were treated every second day for 2 weeks. Mice were weighed and tumor volume was measured with a caliper before each additional treatment. Tumor volume was calculated as 4/3π·a·b^2.

human M14 melanoma cells = conditions: Calcabrini A et al., 2004; cited from earlier work
[2] = test system: prostate cancer cell line DU145; assay: MTT cytotoxic assay, DU145 cells; type: cell-based, Human
Procedure: (§1) Androgen-independent, highly anaplastic prostate cancer cell line with moderate metastatic potential, DU145; Aggressive androgen-independent anaplastic cell line, CL-1; and the colorectal adenocarcinoma DLD1 cells were grown in RPMI-1640 medium supplemented with 5% HI-FBS.
(§2) The cytotoxic effects of terpinen-4-ol on cells were measured with the 3-[4,5-dimethylthiazol-2-yl]-2,5 diphenyltetrazolium (MTT) assay. Cells were seeded in 96-well plates (1×10^4 cells/well) in complete medium. After 12-16 hours of growth, different concentrations of each of the described agents were added to the cells in triplicates. 72 h later, the medium was replaced with fresh medium (100 μl per well) containing 1 mg/ml MTT and the cell were further incubated for 2 to 4 h. MTT-formazan crystals were dissolved by the addition of 100 μl extraction buffer. Absorbance at 570 nm and reference wavelength of 690 nm were recorded on an automated microplate reader. The relative number of viable cells compared to control cell line grown under the same condition, but without the added examined agent was determined.

[3] = test system: pancreatic cancer cell line COLO 357; assay: MTT cytotoxic assay, COLO 357 cells; type: cell-based, Human
Procedure: as §2, with “Human colon adenocarcinoma grade II cells, HT29; Human colon carcinoma cells, HCT116; Human colonic carcinoma cells, COLO 320; Human cell line” for “The cytotoxic effects”, “metastatic pancreatic adenocarcinoma, COLO 357; Human pancreatic carcinoma epithelial-like cell line, PANC-1; and Human pancreatic carcinoma cells, MIA-PACA” for “terpinen-4-ol on cells”, “grown in high-glucose Dulbecco's modified Eagle's medium (DMEM) supplemented” for “measured”, “5% heat-inactivated (HI) fetal bovine serum (FBS), 1% Glutamine and streptomycin/penicillin. […]” for “the 3-[4,5-dimethylthiazol-2-yl]-2,5 diphenyltetrazolium (MTT) assay.”

[4] = test system: pancreatic cancer cell line PANC-1; assay: MTT cytotoxic assay, PANC-1 cells; type: cell-based, Human
Procedure: as §2

[5] = test system: pancreatic cancer cell line MIA-PACA; assay: MTT cytotoxic assay, MIA-PACA cells; type: cell-based, Human
Procedure: as §2

[6] = test system: colorectal cancer cell line HT29; assay: MTT cytotoxic assay, HT29 cells; type: cell-based, Human
Procedure: as §2

[7] = test system: murine B16 melanoma tumor cell line; conditions: Greay S J et al., 2010; cited from earlier work
cancer cell lines = assay: MTT cytotoxic assay, all cancer cell lines examined (general statements); type: cell-based; conditions: terpinen-4-ol at a concentration of 0.01%
Procedure: Human colon adenocarcinoma grade II cells, HT29; Human colon carcinoma cells, HCT116; Human colonic carcinoma cells, COLO 320; Human cell line of metastatic pancreatic adenocarcinoma, COLO 357; Human pancreatic carcinoma epithelial-like cell line, PANC-1; and Human pancreatic carcinoma cells, MIA-PACA were grown in high-glucose Dulbecco's modified Eagle's medium (DMEM) supplemented with 5% heat-inactivated (HI) fetal bovine serum (FBS), 1% Glutamine and streptomycin/penicillin.
as §1
as §2, with “72 h later, the medium was replaced with fresh medium (100 μl per well) containing 1 mg/ml MTT and the cell were further incubated for 2 to 4 h. MTT-formazan crystals were dissolved by the addition of 100 μl extraction buffer.” left out

[8] = test system: murine AE17 mesothelioma tumor cell line; conditions: Greay S J et al., 2010; cited from earlier work
[9] = test system: colorectal cancer cell line DLD1; assay: MTT cytotoxic assay, DLD1 cells; type: cell-based
Procedure: as §2

[10] = test system: drug (adriamicin)-resistant cell line (ADR); conditions: cell line expressing high levels of P-glycoprotein; Calcabrini A et al., 2004; cited from earlier work
[11] = test system: prostate cancer cell line CL-1; assay: MTT cytotoxic assay, CL-1 cells; type: cell-based
Procedure: as §1, §2

## CC1=CCC(O)(C(C)C)CC1 (stereo not drawn) [terpinen-4-ol, 4-methyl-1-(1-methylethyl)-3-cyclohexen-1-ol]
[1]; Example 5, intra-tumor injection of 50 μl 0.1% terpinen-4-ol (about 1.65 mg/Kg per injection) every second day, vs control, FIG. 5A
  volume of the implanted tumor: significantly reduced
[1]; Example 5, intra-tumor injection of 50 μl 0.1% terpinen-4-ol (about 1.65 mg/Kg per injection) every second day, vs control, end of assay, FIG. 5B
  weight of the implanted tumor: significantly reduced
[1]; Example 6, 0.1% terpinen-4-ol intra-tumor, after two weeks of treatment
  effect on the tumor growth: only minor effect
[1]; Example 6, 50 μl 0.1% terpinen-4-ol intra-tumor every second day, after two weeks of treatment, FIG. 6
  reduction of tumor size compared to control: about 3.7%
Human M14 melanoma cells
  effect on cell growth: impair the growth
[2]; 0.005%, 0.01%, 0.02% and 0.10% (v/v), FIG. 2C
  concentration dependence of cytotoxic effect: concentration dependent
[2]; 0.01% DMSO added to medium containing 0.01%, 0.05% or 0.10% terpinen-4-ol, FIG. 1F
  dependence of cytotoxic activity on DMSO: does not depend on the presence of DMSO
[3]; 0.005%, 0.01%, 0.02% and 0.10% (v/v), FIG. 2G
  concentration dependence of cytotoxic effect: concentration dependent
[3]; 0.01% DMSO added to medium containing 0.01%, 0.05% or 0.10% terpinen-4-ol, FIG. 1E
  dependence of cytotoxic activity on DMSO: does not depend on the presence of DMSO
[4]; 0.005%, 0.01%, 0.02% and 0.10% (v/v), FIG. 2F
  concentration dependence of cytotoxic effect: concentration dependent
[4]; 0.01% DMSO added to medium containing 0.01%, 0.05% or 0.10% terpinen-4-ol, FIG. 1C
  dependence of cytotoxic activity on DMSO: does not depend on the presence of DMSO
[5]; 0.005%, 0.01%, 0.02% and 0.10% (v/v), FIG. 2E
  concentration dependence of cytotoxic effect: concentration dependent
[5]; 0.01% DMSO added to medium containing 0.01%, 0.05% or 0.10% terpinen-4-ol, FIG. 1D
  dependence of cytotoxic activity on DMSO: does not depend on the presence of DMSO
[6]; 0.005%, 0.01%, 0.02% and 0.10% (v/v), FIG. 2B
  concentration dependence of cytotoxic effect: concentration dependent
[6]; 0.01% DMSO added to medium containing 0.01%, 0.05% or 0.10% terpinen-4-ol, FIG. 1B
  dependence of cytotoxic activity on DMSO: does not depend on the presence of DMSO
[6]; 0.01% DMSO, FIG. 1B
  cytotoxic activity in the presence of DMSO compared to without: lower activity
[7]
  anti-proliferative effect: significant anti-proliferative effects
Cancer cell lines
  cytotoxic effectiveness: moderately effective
[8]
  anti-proliferative effect: significant anti-proliferative effects
[9]; 0.005%, 0.01%, 0.02% and 0.10% (v/v), FIG. 2A
  concentration dependence of cytotoxic effect: concentration dependent
[9]; 0.01% DMSO added to medium containing 0.01%, 0.05% or 0.10% terpinen-4-ol, FIG. 1A
  dependence of cytotoxic activity on DMSO: does not depend on the presence of DMSO
[10]
  effectiveness relative to parental M14 cells: more effective
[11]; 0.005%, 0.01%, 0.02% and 0.10% (v/v), FIG. 2D
  concentration dependence of cytotoxic effect: concentration dependent
[11]; 0.01% DMSO added to medium containing 0.01%, 0.05% or 0.10% terpinen-4-ol, FIG. 1G
  dependence of cytotoxic activity on DMSO: does not depend on the presence of DMSO
